“And” between values parts separate entries of the source, which are not always exact repeats. Equal entries are not always repeated. Where two headings read alike, the source gives them in different places.
What was measured:
[1] = cited from earlier work
Method: Recent studies have, however, shown that, in addition to fibers and polyphenols, hydrolyzed proteins and peptides also contribute to the health promoting effect of cereals. […] Protein hydrolysates from oats, wheat, and rice have all shown antioxidant activities against common reactive oxygen species (ROS) in various systems. The peroxyl radical scavenging activity of oat proteins in the ... || Peroxyl radical (ROO^•) scavenging activities of P1–P7 were evaluated using the ORAC assay. […] ROO^• scavenging activities can be affected by sequences, molecular weights and the presence of amino acids that can form stable radical intermediates after donation of electrons or protons. The highest activities of P2 and P5 can be explained ...

HepG2 cells = format: cell-based, Human; details: then 20 mM AAPH 24 h, MTT; for Cytoprotective effect against AAPH-induced damage: 50 or 100 µM peptide 24 h; for Increase of viability of cells compared to PC: 100 µM peptide 24 h, p < 0.05
Method: Human hepatocellular carcinoma (HepG2) cells were purchased from the American Type Culture Collection (ATCC; Manassas, VA, USA). They were cultured at 37 °C in a humidified incubator with 5% CO2 and 95% air. Dulbecco’s Minimal Essential Media (DMEM) supplemented with 10% (v/v) Fetal Bovine Serum was used for the maintenance of cells. […] The MTT (3-(4,5-dimethylthiazol-2-yl)-2,5-diphenyltetrazolium bromide) assay, as described in an earlier research, was used for cytotoxicity and cytoprotective tests. […] Following another 24 h incubation, cells were washed twice with 200 µL of PBS. Ten µL of MTT solution (5 mg/mL in PBS) and 100 µL of media were added to each well. After 1 h, MTT solution was removed, and 50 µL DMSO were added. Absorbances were recorded at 570 nm with 630 nm background subtraction using a BioTek Epoch™ microplate reader (Fisher Scientific, Nepean, ON, Canada). Untreated cells were used as negative control (NC) and cells treated with only AAPH were used as positive control (PC).

RAW 264.7 cells = details: peptides from fish; cited from earlier work
From the text: The physiological role of GSH has long been of interest, particularly its antioxidant function due to the unique redox chemistry of its cysteinyl thiol residue. The oxidation of sulfhydryl groups on amino acids by ROS can lead to the formation of protein disulfide bonds, which can be reduced by GSH into individual sulfhydryl groups. GSH is also a substrate used by GPx in the reduction of peroxides and its concentration often reflects oxidative status of cells.

[2] = system: glutathione peroxidase (GPx); assay: Glutathione peroxidase activity of lysates of AAPH-stressed cells; format: cell-based, Human; details: for Effect on GPx activity of AAPH-stressed cells: then AAPH 24 h
Method: (§1) Cells were seeded at 1 × 10^6 cells/plate in 60 mm tissue culture plates and allowed to grow for 24 h. In each plate, cells were washed twice with 4 mL of PBS (pH 7.2), and treated with 4 mL peptide samples (P1, P2, P6, P7) dissolved in culture media at 50 or 100 µM for 24 h. After removal of peptide solutions, cells were washed twice with 4 mL of PBS/plate and treated with 4 mL of […] dissolved in culture media and allowed to incubate for 24 h. Cells in each culture plate were harvested by incubation (5 min) with 0.5 mL of 0.25% trypsin, addition of 1 mL of culture media and centrifugation at 1000× g for 5 min. Cell pellets were washed with ice cold PBS (500 µL each) until no pink color was observed, re-suspended in ice cold PBS (300 µL) for the superoxide dismutase (SOD) assay, 500 µL for glutathione peroxidase (GPx) and catalase (CAT) assays. For total glutathione assay, 300 µL of 5% ice cold sulfosalicylic acid bubbled with 100% nitrogen was used for cell lysis. Cells were lysed by sonication on ice for 1 min using a probe-type sonicator (Vibra-Cell, Sonics and Materials Inc., Newtown, CT, USA) pulsing at 15 s on and 10 s off cycles. Following centrifugation of cell lysate at 13,000× g (4 °C), pellets containing cell debris were discarded, while supernatants were used for determination of glutathione content. Protein contents were determined using a modified Lowry assay.
The activity of GPx was determined as previously described in a 96-well plate. Briefly, in each well, 187.5 µL of potassium phosphate buffer was mixed with 12.5 µL NADPH (4 mM) solution and 25 µL of cell lysates or buffer (blank), and incubated at 30 °C for 5 min. Then, 100 µL of 0.15% cumene hydroperoxide was added in each well to begin the reaction. The rate of disappearance of NADPH was followed at 340 nm for 5 min. The activity was expressed as Units of GPx activity/mg protein.

[3] = system: superoxide dismutase (SOD); assay: Superoxide dismutase activity of lysates of AAPH-stressed cells; format: cell-based, Human; details: 50 µM peptide 24 h, then AAPH 24 h
Method: as §1
The SOD activity was measured based on the rate of reduction of nitroblue tetrazolium (2.24 mM) to formazan by xanthine oxidase (13.2 U/mL) at 560 nm. Eight concentrations of each cell extract ([…] protein/mL) or SOD standard (2–500 ng/mL) were used to obtain inhibition curves. Specifically, 20 µL of cell sample, or buffer (blank) was mixed with 160 µL of assay solution, and 20 µL of xanthine oxidase was added to initiate the reaction. The reduction of nitroblue tetrazolium to blue formazan by O2^−• generated in situ was followed at 560 nm. SOD activities were calculated and expressed as units per milligram of protein.

[4] = Oxygen radical absorbance capacity (ORAC) assay; details: fluorescein 0.08 µM, AAPH 150 mM, 37 °C, 50 min, potassium phosphate buffer pH 7.4 75 mM, peptides 100 and 200 µM; triplicate, mean ± STDEV
Method: The ORAC assay was performed as previously described. The decay of fluorescein (0.08 µM) by AAPH (150 mM) at 37 °C was recorded at 1 min intervals over 50 min using a BioTek™ FL × 800™ fluorescent microplate reader (Fisher Scientific, Nepean, ON, Canada) with fluorescence filters (excitation 485/20 nm, emission 528/20 nm). Potassium phosphate buffer (pH 7.4, 75 mM) was used to dissolve peptides (100 and 200 µM) and Trolox standards (6.25–100 µM). Data analysis was done with Gen5^TM software (Fisher Scientific, Nepean, ON, Canada), and ORAC values were expressed as µM Trolox Equivalent (TE)/µM peptide using the standard curve.

catalase (CAT) = assay: Catalase activity of lysates of AAPH-stressed cells; format: cell-based, Human
Method: as §1, with “assay. To measure the catalase activity, 1790 µL potassium phosphate buffer (50 mM, pH 7.0) was mixed with 200 µL cell lysate in a UV cuvette. Ten µL of H2O2 (30%) was added, and removal of H2O2 by catalase was followed at 240 nm using a Cary 50 Bio UV-Vis spectrophotometer with 18-cell changer (Varian Inc., Mississauga, ON, Canada). The activity was expressed as a percentage of control.” for “assay.”

[5] = system: glutathione (GSH) of HepG2 cells; assay: Cellular glutathione, enzymatic recycling method; format: cell-based, Human; details: treatment with AAPH alone, 24 h
Method: as §1
The assay was based on the enzymatic recycling method adjusted for 96-well plates. All solutions were prepared in sodium phosphate buffer (125 mM, pH 7.5) that contained 6.3 mM EDTA (ethylenediaminetetraacetic acid). In summary, 60 µL of 0.35 mM NADPH and 10 µL of 6 mM DTNB were added to wells, this was followed by the addition of 20 µL cell lysate or glutathione (GSH) standard. To initiate the reaction, 10 µL of glutathione reductase (5 IU/mL) was added and the rate of reaction between GSH from cell lysate and DTNB was measured at 412 nm. Total glutathione of cell lysates was calculated based on a standard curve of glutathione.

[6] = peptide from beta-lactoglobulin
[7] = 50 µM peptide 24 h, then AAPH 24 h

MHIRL [literature peptide from beta-lactoglobulin]
ORAC activity [1, 6]: 0.306 µM TE/µM

GQTV [P3, oat protein derived peptide GQTV, synthesized by GenScript]
Cytoprotective effect against AAPH-induced damage (HepG2 cells): no effect on oxidative damages

CAAP [literature peptide from fish]
Increase of ROS due to AAPH (RAW 264.7 cells): attenuated

WYSLAMAASDI [literature peptide from beta-lactoglobulin]
ORAC activity [1, 6]: 2.6 µM/µM

FNDRLRQGQLL [P1, oat protein derived peptide …, synthesized by GenScript]
Increase of viability of cells compared to PC (HepG2 cells): 15.5% | Cytoprotective effect against AAPH-induced damage (HepG2 cells): cytoprotective | Effect on GPx activity of AAPH-stressed cells ([2]; 50 µM peptide 24 h): completely restored the activity | Effect on SOD activity compared to AAPH treated cells only (PC) [3]: did not affect the activity | ORAC value (peroxyl radical scavenging activity) [4]: 0.14–0.61 µM TE/µM | Effect on CAT activity compared to PC cells (catalase (CAT); [7]): no change was observed | Effect on CAT activity (catalase (CAT); 100 µM peptide 24 h, then AAPH 24 h): not affected by the peptide concentration

DVNNNANQLEPR [P7, oat protein derived peptide …, synthesized by GenScript]
Increase of viability of cells compared to PC (HepG2 cells): 8.3% | Cytoprotective effect against AAPH-induced damage (HepG2 cells): cytoprotective | Effect on GPx activity of AAPH-stressed cells ([2]; 50 µM peptide 24 h): had no effect | Effect on GPx activity of AAPH-stressed cells ([2]; 100 µM peptide 24 h): only suppressed the damage caused by AAPH | Effect on SOD activity compared to AAPH treated cells only (PC) [3]: did not affect the activity | ORAC value (peroxyl radical scavenging activity) [4]: 0.14–0.61 µM TE/µM and 0.14 ± 0.04 µM TE/µM | Further increase of CAT activity compared to PC cells (catalase (CAT); [7]): 90%

YAEERYPIL [literature peptide from egg white]
ORAC activity ([1]; peptide from egg white): 3.5 µM TE/µM

VCSV [literature peptide from fish]
Increase of ROS due to AAPH (RAW 264.7 cells): attenuated

CC(C)(N=NC(C)(C)C(=N)N)C(=N)N.Cl.Cl [AAPH, 2,2′-azobis(2-methylpropionamidine) dihydrochloride, reference compound]
Decrease of GPx activity relative to NC ([2]; HepG2 cells incubated with AAPH alone, 24 h): 18.2% | Decrease of GSH [5]: 58.1% | Increase of CAT activity (catalase (CAT); treatment with AAPH alone, 24 h): ~2 fold

GQTVFNDRLRQGQLL [P4, oat protein derived peptide …, synthesized by GenScript]
Cytoprotective effect against AAPH-induced damage (HepG2 cells): no effect on oxidative damages | ORAC value (peroxyl radical scavenging activity) [4]: 0.14–0.61 µM TE/µM

From PMC5187537, “Antioxidant Activity of Oat Proteins Derived Peptides in Stressed Hepatic HepG2 Cells” (Antioxidants, 2016)
